Test results published in patent US20100227858A1, “TRISUBSTITUTED PYRIMIDINE DERIVATIVES FOR THE TREATMENT OF PROLIFERATIVE DISEASES” (ASTRAZENECA AB, priority 2007, published 2010).
“And” between values parts separate entries of the source, which are not always exact repeats. Identical values can stand only once. Like-named read-outs stand apart in the source and are kept apart here.

Key:
Serine 473 in Akt = assay: In vitro phospho-Ser473 Akt assay, Test (c); type: cell-based; details: Homo sapiens; MDA-MB-468 cells; read-out: IC50 versus Serine 473 in Akt, Test (c)
Method: (c) In Vitro phospho-Ser473 Akt Assay
This assay determines the ability of test compounds to inhibit phosphorylation of Serine 473 in Akt as assessed using Acumen Explorer technology (Acumen Bioscience Limited), a plate reader that can be used to rapidly quantitate features of images generated by laser-scanning.
A MDA-MB-468 human breast adenocarcinoma cell line (LGC Promochem, Teddington, Middlesex, UK, Catalogue No. HTB-132) was routinely maintained at 37° C. with 5% CO2 up to a confluency of 70-90% in DMEM containing 10% heat-inactivated FCS and 1% L-glutamine.
For the assay, the cells were detached from the culture flask using ‘Accutase’ (Innovative Cell Technologies Inc., San Diego, Calif., USA; Catalogue No. AT104) using standard tissue culture methods and resuspended in media to give 1.7×10^5 cells per mL. […]
All subsequent aspiration and wash steps were carried out using a Tecan 96 well plate washer (aspiration speed 10 mm/sec). […] An aliquot of PBS (50 μl) was added to each well and the plates were sealed with black plate sealers and the fluorescence signal was detected and analysed.
Fluorescence dose response data obtained with each compound were analysed and the degree of inhibition of Serine 473 in Akt was expressed as an IC50 value.

recombinant mTOR = recombinant mTOR (Homo sapiens, UniProt P42345); assay: In vitro mTOR kinase assay, Test (a)(i) (AlphaScreen); type: biochemical
Method: (a)(i) In Vitro mTOR Kinase Assay
The HEK293 FLAG-tagged mTOR (1362-2549) stable cell line was routinely maintained at 37° C. with 5% CO2 up to a confluency of 70-90% in Dulbecco's modified Eagle's growth medium (DMEM; Invitrogen Limited, Paisley, UK Catalogue No. 41966-029) containing 10% heat-inactivated foetal calf serum (FCS; Sigma, Poole, Dorset, UK, Catalogue No. F0392), 1% L-glutamine (Gibco, Catalogue No. 25030-024) and 2 mg/ml Geneticin (G418 sulfate; Invitrogen Limited, UK Catalogue No. 10131-027). Following expression in the mammalian HEK293 cell line, expressed protein was purified using the FLAG epitope tag using standard purification techniques.
A 30 μl mixture of recombinant purified mTOR enzyme, 1 μM biotinylated peptide substrate (Biotin-Ahx-[…]NH2; Bachem UK Ltd), ATP (20 μM) and a buffer solution [comprising Tris-HCl pH7.4 buffer (50 mM), EGTA (0.1 mM), bovine serum albumin (0.5 mg/mL), DTT (1.25 mM) and manganese chloride (10 mM)] was agitated at room temperature for 90 minutes.
These assay solutions were incubated for 2 hours at room temperature.
Phosphorylated biotinylated peptide is formed in situ as a result of mTOR mediated phosphorylation. The phosphorylated biotinylated peptide that is associated with AlphaScreen Streptavidin donor beads forms a complex with the p70 S6 Kinase (T389) 1A5 Monoclonal Antibody that is associated with Alphascreen Protein A acceptor beads. […] Accordingly, the presence of mTOR kinase activity results in an assay signal. In the presence of an mTOR kinase inhibitor, signal strength is reduced.

PI3K = target: T1, PI3K; assay: In vitro PI3K enzyme assay, Test (b)(i) (AlphaScreen); type: biochemical, human; details: single values measured on two occasions; isoform (p110α or p110γ) not clearly stated; read-out: IC50 versus PI3K, Test (b)(i)
T1 construct: full length DNA of each of the p110α, p110β and p110δ Type Ia human PI3K p110 isoforms
Description: (b)(i) In Vitro PI3K Enzyme Assay

[1] = enzyme assay, values may represent the average of two or more measurements, read-out: Test (a)(i) IC50

Chain of recombinant mTOR (P42345 1362-2549): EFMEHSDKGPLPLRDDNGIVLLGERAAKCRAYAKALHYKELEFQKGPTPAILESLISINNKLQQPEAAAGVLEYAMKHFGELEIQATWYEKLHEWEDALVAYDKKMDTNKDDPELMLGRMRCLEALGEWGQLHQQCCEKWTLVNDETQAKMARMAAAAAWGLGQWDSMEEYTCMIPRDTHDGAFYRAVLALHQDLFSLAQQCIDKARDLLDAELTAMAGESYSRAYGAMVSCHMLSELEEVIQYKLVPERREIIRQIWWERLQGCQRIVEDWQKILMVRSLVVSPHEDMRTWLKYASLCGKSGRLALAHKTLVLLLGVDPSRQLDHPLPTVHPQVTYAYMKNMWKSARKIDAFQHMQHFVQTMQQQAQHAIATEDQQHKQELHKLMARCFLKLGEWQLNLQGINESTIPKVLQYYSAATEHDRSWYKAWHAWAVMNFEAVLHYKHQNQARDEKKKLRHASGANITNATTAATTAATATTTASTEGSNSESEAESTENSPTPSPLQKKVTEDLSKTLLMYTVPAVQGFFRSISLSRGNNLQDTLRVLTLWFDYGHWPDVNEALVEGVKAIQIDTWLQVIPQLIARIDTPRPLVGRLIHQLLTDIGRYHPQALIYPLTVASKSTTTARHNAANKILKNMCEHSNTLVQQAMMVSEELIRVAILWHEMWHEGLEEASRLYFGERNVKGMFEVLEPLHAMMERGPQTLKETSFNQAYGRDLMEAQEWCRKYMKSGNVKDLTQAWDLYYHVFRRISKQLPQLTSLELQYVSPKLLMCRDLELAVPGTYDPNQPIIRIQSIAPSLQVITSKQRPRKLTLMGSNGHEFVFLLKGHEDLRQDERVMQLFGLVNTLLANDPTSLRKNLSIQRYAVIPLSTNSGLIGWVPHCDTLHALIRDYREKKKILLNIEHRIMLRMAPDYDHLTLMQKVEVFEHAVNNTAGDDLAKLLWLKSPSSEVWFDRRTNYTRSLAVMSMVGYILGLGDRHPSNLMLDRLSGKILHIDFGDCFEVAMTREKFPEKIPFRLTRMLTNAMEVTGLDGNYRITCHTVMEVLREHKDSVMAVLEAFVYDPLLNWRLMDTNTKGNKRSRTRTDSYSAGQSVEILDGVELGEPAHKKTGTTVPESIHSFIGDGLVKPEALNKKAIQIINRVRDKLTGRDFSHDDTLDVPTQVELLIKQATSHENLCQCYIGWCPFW
T1 sequence (P42336 whole entry, canonical isoform): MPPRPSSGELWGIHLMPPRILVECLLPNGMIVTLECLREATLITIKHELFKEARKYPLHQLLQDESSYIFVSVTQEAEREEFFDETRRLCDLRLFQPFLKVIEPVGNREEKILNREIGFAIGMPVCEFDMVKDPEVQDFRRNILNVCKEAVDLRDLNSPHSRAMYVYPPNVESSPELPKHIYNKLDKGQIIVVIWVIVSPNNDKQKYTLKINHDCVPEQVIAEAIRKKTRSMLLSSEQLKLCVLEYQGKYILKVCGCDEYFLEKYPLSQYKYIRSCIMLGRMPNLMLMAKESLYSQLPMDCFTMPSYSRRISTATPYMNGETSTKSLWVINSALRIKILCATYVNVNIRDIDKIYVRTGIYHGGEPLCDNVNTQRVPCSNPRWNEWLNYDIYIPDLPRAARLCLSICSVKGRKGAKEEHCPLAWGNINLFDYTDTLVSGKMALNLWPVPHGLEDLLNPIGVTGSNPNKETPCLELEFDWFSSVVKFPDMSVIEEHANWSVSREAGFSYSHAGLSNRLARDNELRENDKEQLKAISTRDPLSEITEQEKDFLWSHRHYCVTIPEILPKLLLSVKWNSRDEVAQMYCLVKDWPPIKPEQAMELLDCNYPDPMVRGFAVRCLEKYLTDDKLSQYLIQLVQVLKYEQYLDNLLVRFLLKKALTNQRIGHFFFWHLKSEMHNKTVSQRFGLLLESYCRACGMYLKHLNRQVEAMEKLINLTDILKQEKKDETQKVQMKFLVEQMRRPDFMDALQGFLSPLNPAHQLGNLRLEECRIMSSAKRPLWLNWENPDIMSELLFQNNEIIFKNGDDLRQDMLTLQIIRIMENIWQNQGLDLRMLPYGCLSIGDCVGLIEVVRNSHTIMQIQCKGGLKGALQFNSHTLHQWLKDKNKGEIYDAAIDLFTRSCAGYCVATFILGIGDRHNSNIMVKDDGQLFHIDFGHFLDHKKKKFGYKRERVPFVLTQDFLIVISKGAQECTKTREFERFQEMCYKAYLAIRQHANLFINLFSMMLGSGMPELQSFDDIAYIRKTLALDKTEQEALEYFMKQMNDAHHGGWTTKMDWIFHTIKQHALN
T1 sequence (P27986 2-724, further chain): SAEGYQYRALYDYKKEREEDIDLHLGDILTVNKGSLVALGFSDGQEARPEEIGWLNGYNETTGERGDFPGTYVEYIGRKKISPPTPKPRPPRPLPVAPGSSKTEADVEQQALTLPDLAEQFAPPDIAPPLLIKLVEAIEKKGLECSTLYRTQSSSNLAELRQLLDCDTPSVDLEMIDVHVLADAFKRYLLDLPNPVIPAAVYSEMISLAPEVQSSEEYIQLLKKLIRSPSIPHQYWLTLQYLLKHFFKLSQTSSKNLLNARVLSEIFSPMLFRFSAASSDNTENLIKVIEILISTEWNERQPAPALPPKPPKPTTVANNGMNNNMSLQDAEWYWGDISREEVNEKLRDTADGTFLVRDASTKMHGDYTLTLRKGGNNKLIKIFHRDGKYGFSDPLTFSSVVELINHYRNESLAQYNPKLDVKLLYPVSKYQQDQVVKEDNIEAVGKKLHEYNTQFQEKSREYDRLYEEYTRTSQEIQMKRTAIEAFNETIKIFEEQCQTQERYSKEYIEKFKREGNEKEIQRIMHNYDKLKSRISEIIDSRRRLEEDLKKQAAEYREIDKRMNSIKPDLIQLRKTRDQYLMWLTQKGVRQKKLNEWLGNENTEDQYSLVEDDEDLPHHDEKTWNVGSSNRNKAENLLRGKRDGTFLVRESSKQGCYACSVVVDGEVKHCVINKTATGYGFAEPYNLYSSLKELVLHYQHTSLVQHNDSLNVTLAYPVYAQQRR

| IC50 (recombinant mTOR; [1]) [nM] | Compound | further results |
| --- | --- | --- |
| 478 | C[C@H]1COCCN1c1cc(CS(C)(=O)=O)nc(-c2ccc3cc[nH]c3c2)n1 [Example 35, 6-[4-[(3S)-3-Methylmorpholin-4-yl]-6-(methylsulfonylmethyl)pyrimidin-2-yl]-1H-indole] | IC50 (Serine 473 in Akt): 3360 nM; IC50 (recombinant mTOR; single values measured on two occasions, read-out: IC50 versus mTOR kinase, Test (a)(i)): 566 nM and 404 nM; IC50 (PI3K): 37000 nM |
| 894 | COc1ccccc1C(=O)Nc1cc(N2CCOC[C@@H]2C)nc(N2CCOC[C@@H]2C)n1 [Example 9, N-[2,6-Bis[(3S)-3-methylmorpholin-4-yl]pyrimidin-4-yl]-2-methoxy-benzamide] | – |
| 364 | COc1cccc(C(=O)Nc2nc(N3CCOC[C@@H]3C)cc(N3CCOC[C@@H]3C)n2)c1 [Example 5, N-[4,6-Bis[(3S)-3-methylmorpholin-4-yl]pyrimidin-2-yl]-3-methoxy-benzamide] | – |
| 990 | C[C@H]1COCCN1c1cc(CS(C)(=O)=O)nc(-c2ccc(-c3cn[nH]c3)cc2)n1 [Example 31, 4-[(3S)-3-Methylmorpholin-4-yl]-6-(methylsulfonylmethyl)-2-[4-(1H-pyrazol-4-yl)phenyl]pyrimidine] | – |
| 9390 | C[C@H]1COCCN1c1cc(NC(=O)c2ccc(NC(=O)Nc3ccccc3)cc2)nc(N2CCOC[C@@H]2C)n1 [Example 17, N-[2,6-Bis[(3S)-3-methylmorpholin-4-yl]pyrimidin-4-yl]-4-(phenylcarbamoylamino)benzamide] | – |
| 4650 | COc1ccc(C(=O)Nc2nc(N3CCOC[C@@H]3C)cc(N3CCOC[C@@H]3C)n2)cc1 [Example 1, N-[4,6-Bis[(3S)-3-methylmorpholin-4-yl]pyrimidin-2-yl]-4-methoxy-benzamide] | – |
| 442 | COc1ccc(C(=O)Nc2nc(N3CCOC[C@@H]3C)cc(N3CCOC[C@@H]3C)n2)cc1C(F)(F)F [Example 4, N-[4,6-Bis[(3S)-3-methylmorpholin-4-yl]pyrimidin-2-yl]-4-methoxy-3-(trifluoromethyl)benzamide] | – |
| 366 | C[C@H]1COCCN1c1cc(CS(=O)(=O)c2ccccc2)nc(-c2cccc3[nH]ccc23)n1 [Example 44, 4-[4-(Benzenesulfonylmethyl)-6-[(3S)-3-methylmorpholin-4-yl]pyrimidin-2-yl]-1H-indole] | – |
| 117 | C[C@H]1COCCN1c1cc(C(C)(C)S(C)(=O)=O)nc(-c2ccc3[nH]ccc3c2)n1 [Example 41, 5-[4-[(3S)-3-methylmorpholin-4-yl]-6-(2-methylsulfonylpropan-2-yl)pyrimidin-2-yl]-1H-indole] | – |
| 588 | C[C@H]1COCCN1c1cc(C(C)(C)S(C)(=O)=O)nc(-c2cnc3[nH]ccc3c2)n1 [Example 40, 3-[4-[(3S)-3-Methylmorpholin-4-yl]-6-(2-methylsulfonylpropan-2-yl)pyrimidin-2-yl]-5,7-diazabicyclo[4.3.0]nona-1,3,5,8-tetraene] | – |
| 4000 | COc1cc(C(=O)Nc2nc(N3CCOC[C@@H]3C)cc(N3CCOC[C@@H]3C)n2)ccn1 [Example 12, N-[4,6-Bis[(3S)-3-methylmorpholin-4-yl]pyrimidin-2-yl]-2-methoxy-pyridine-4-carboxamide] | – |
| 1120 | C[C@H]1COCCN1c1cc(N2CCOC[C@@H]2C)nc(NC(=O)c2ccc(NC(=O)Nc3ccccc3)cc2)n1 [Example 18, N-[4,6-Bis[(3S)-3-methylmorpholin-4-yl]pyrimidin-2-yl]-4-(phenylcarbamoylamino)benzamide] | – |
| 897 | C[C@H]1COCCN1c1cc(CS(C)(=O)=O)nc(Nc2cc[nH]n2)n1 [Example 30, 4-[(3S)-3-Methylmorpholin-4-yl]-6-(methylsulfonylmethyl)-N-(1H-pyrazol-3-yl)pyrimidin-2-amine] | – |
| 335 | C[C@H]1COCCN1c1cc(C(C)(C)S(C)(=O)=O)nc(-c2cccc3[nH]ccc23)n1 [Example 42, 4-[4-[(3S)-3-methylmorpholin-4-yl]-6-(2-methylsulfonylpropan-2-yl)pyrimidin-2-yl]-1H-indole] | – |
